{"source": "patent US20040044304A1", "about": "“Local drug delivery using photosensitizer-mediated and electromagnetic radiation enhanced vascular permeability” (priority 2002, published 2004)", "tested_on": "blood vessels within the dorsal window chamber", "type": "in vivo, mice of strain C3H", "source_text": "Male mice of strain C3H (sourced from The Jackson Laboratory, 600 Main Street, Bar Harbor, Me. 04609 USA) weighing between 28-30 gram were surgically implanted with titanium back-pack window chambers in a similar manner to that described for Syrian Golden hamsters as described above. Prior to the surgical procedure, the dorsal surface of the mouse was shaved with electric clippers (Sunbeam Oster 2-Speed, 150 Cadillac Lane, McMinnville, Tenn., 37110) and then the shaved skin covered in a depilatory cream (Nair, Carter Products, New York, N.Y., 10105) for 10 minutes to remove the remaining hair. Then a dorsal skin fold consisting of two layers of skin and muscle tissue was sandwiched between two opposing titanium frames (Campus Research Machine Shop, University of California, San Diego 9500 Gilman Drive, La Jolla, Calif.) with a 14 mm circular opening in each. Layers of skin and muscle fascia were separated from the sub-cutaneous tissue, and removed until a thin monolayer of muscle and one layer of intact skin remained. A coverglass (Type Circle 1, Part #12-545-80 sourced from Fisher Scientific, 2761 Walnut Avenue, Tustin, Calif., 92780) held by an expansion ring in the circular window of one titanium frame was then placed on the exposed tissue to allow direct microscopic visualization of the vasculature. The window in the second opposing titanium frame was left open exposing the intact skin.\nMicrovascular observations using an intra-vital microscope were not undertaken until at least 2 days post-chamber implantation to mitigate against post-surgical trauma, and to confirm that blood vessels within the chamber were functioning and intact and patent. A chamber was considered suitable for subsequent studies if microscopic examination of the preparation met the following criteria (as applied in Friesenecker et al., 1994):\nThe intra-vital microscopic studies were undertaken on un-sedated animals held in a Plexiglass tube (manufactured by Miravant Medical Technologies, Inc., 336 Bollay Drive, Santa Barbara, 93117) from which the window chamber sandwich protruded horizontally, allowing visualization of the chamber on the microscope stage. The Plexiglass tube acted to restrain the animals without impeding respiration. The intra-vital microscopy was performed using a Leitz Dialux 22 (West LA Microscope Co., Butler Avenue, Santa Monica, 90025) fitted with a Leitz Wetzlar 20× L20 lens (0.32 numerical aperture), a Leitz Wetzlar 10× Planfluotar lens (0.30 numerical aperture), a Leitz Wetzlar 4× EF lens (0.12 numerical aperture), a Leitz Wetzlar 2.5× P1 lens (0.08 numerical aperture, and an Olympus 20× Wplan water immersion lens (0.4 numerical aperture). The intra-vital microscope system used for these studies was fitted with two trans-illumination light sources and one epi-illumination light source. The two trans-illumination sources were used in the following manner. One trans-illumination light source was used for imaging the tissue within the window chamber, and the other was used as the irradiation source for activating the photosensitizer in the tissue. The imaging source was a […] mercury arc lamp (Type 307-143.004 from Ernst Leitz Wetzlar GmBH, Germany) which was powered by an HBO 100 power supply (LEP Ltd., Scarsdale, N.Y.). The output from this source was filtered using a #H43157 interference filter (Edmund Scientific, 101 East Gloucester Pike, Barrington, N.J., 08007-1380), to produce a beam of 410 nm light. The irradiation source was a Model DD4 Diode Laser (Miravant Medical Technologies 336 Bollay Drive., Santa Barbara, Calif., 93117), which produced 664 nm light.", "data": [{"smiles": "C=Cc1c(C)c2[n]3c1=CC1=NC(=Cc4c(C)c5c([n]4[In]3[Cl])C(=C3N=C(C=2)[C@@H](C)[C@@H]3CCC(=O)OC)CC5=O)C(CC)=C1C", "note": "[MV6401, indium methyl pyropheophorbide]", "values": [{"measurement": "Extravasation of FITC-Dextran from larger vessels in field", "setting": "mouse #2, MV6401 0.05 mg/kg i.v., 664 nm, 15 J/cm^2, 50 mW/cm^2, FITC-Dextran 1 day post PhotoPoint therapy", "result": "Pronounced extravasation"}, {"measurement": "Extravasation of FITC-Dextran from many vessels in the treatment field", "setting": "mouse #3, MV6401 0.05 mg/kg i.v., 664 nm, 20 J/cm^2, 50 mW/cm^2, FITC-Dextran 2 days post PhotoPoint therapy", "result": "flowing. Pronounced"}, {"measurement": "Edema in field", "setting": "mouse, in vivo, iv, 0.05 mg/kg", "result": "Mild edema in field."}, {"measurement": "Focal edema and cellular infiltrate", "setting": "mouse, in vivo, iv, 0.05 mg/kg", "result": "minor areas of focal"}, {"measurement": "Focal vascular damage in the treatment field, immediately post FITC-Dextran administration", "setting": "mouse, in vivo, iv, 0.05 mg/kg", "result": "Some evidence of focal"}, {"measurement": "Tissue damage, subsequent observation", "setting": "mouse, in vivo, iv, 0.05 mg/kg", "result": "damage. Some evidence"}, {"measurement": "Vascular damage, subsequent observation", "setting": "mouse, in vivo, iv, 0.05 mg/kg", "result": "Pronounced focal vascular"}]}]}
